Reference: patent US20260284049A1 (BRISTOL-MYERS SQUIBB COMPANY, priority 2023, published 2026)
Read-outs that look alike come from different tables or passages of the source.

Assays:
Factor XI Activity = Factor XI Activity (Homo sapiens, UniProt P03951); assay: AXIOMATIC-TKR: FXI clotting activity (FXI:c); assay type: in vivo; parameters: dose or concentration left out as unconfirmed
Description: As used herein, “Factor XI Clotting Activity” is determined utilizing an aPTT-based 1-stage clotting time assay. Serial dilutions of normal pooled plasma are mixed with FXI-depleted plasma and the clotting times are measured according to standard aPTT protocol, to establish a reference range. Subject test plasma is treated in the same way and compared with the reference plasma.
In some embodiments, the Factor XI Clotting Activity is measured as follows: Factor XI (FXI) activity is measured using a modification of the activated partial thromboplastin time (aPTT) using Actin FS (Siemens Healthcare) on the Siemens BCS® XP analyzer. […] The reference standard, at approximately 100%, is diluted by the BCS® XP analyzer in saline to generate pre-selected calibration levels of FXI. The calibration curve is plotted with FXI activity in percent (%) on the x-axis and clotting time in seconds on the y-axis. A log/lin regression curve fit is used. […] APTT reagent (Actin FS) is added and the mixture is incubated. Following incubation, calcium chloride is added to the mixture and the time to clot formation (measured optically) is compared to the time on the calibration curve. Samples are tested at the base dilution (1:10) prepared by the BCS® XP in saline.
(§1) Assessment of the dose-response for the occurrence of any bleeding was a secondary objective.
(§2) PD analyses were performed on the PD analysis set, defined as subjects who had at least one valid blood sample drawn for PD. Descriptive statistics (N, mean, SD, median, range, CV (%) and IQ range) were used to summarize PD response at each nominal sampling time point by treatment group. Changes from baseline were summarized when applicable. PD response outside of limit of quantitation were not to be imputed and were to be noted in the summary statistics.

[1] = system: participants undergoing primary unilateral elective TKR surgery
[2] = system: activated partial thromboplastin time (aPTT); assay: AXIOMATIC-TKR: aPTT and ratio to baseline; assay type: in vivo, human
Description: In some embodiments, aPTT is measured as follows: Plasma samples are incubated with Actin FS aPTT assay reagent containing a standard amount of phospholipid and contact activator (ellagic acid) which activates the intrinsic coagulation pathway. After incubating for 3 minutes, calcium chloride is added to initiate coagulation and formation of a fibrin clot is measured optically. The time to clot formation (measured in seconds) is reported as the Activated Partial Thromboplastin Time (aPTT). […]
as §2

[3] = system: QT/QTc interval (cardiac repolarization); assay type: in vivo, human
Text: The upper bound of two-sided 90% CI for the largest difference in mean change from baseline in QTc intervals (ΔQTc; […].
A total of 66 participants were enrolled in the study and randomly assigned to 1 of 4 possible treatment sequences. […].
Forty-five (68.2%) participants completed all 4 periods with study intervention as planned. […]

[4] = system: VTE prevention in orthopedic surgery; details: cited from earlier work; for VTE prevention in orthopedic surgery vs enoxaparin 40 mg once daily: historical Phase 3 studies; for bleeding: Phase 2 orthopedic surgery studies and in combination with antiplatelets after an ACS
[5] = system: cardiac potassium (hERG/IKr) channel; assay: In vitro cardiac potassium channel current inhibition; assay type: cell-based; details: concentrations that greatly exceed unbound plasma concentrations
clinical [6] = details: human, in vivo, po
Text: (§3) (AXIOMATIC-TKR Phase II).
as §1

thrombin generation = assay: AXIOMATIC-TKR: Thrombin Generation Assay (TGA): peak height, ETP, lag time; assay type: in vivo, human; details: Milvexian 25 mg QD; Day 10-14
Text: as §3
As used herein, “Thrombin Generation Assay (TGA)” is a global coagulation assay that evaluates the thrombogenic capacity of a plasma sample and has been proposed that it may better reflect prothrombotic or hemorrhagic states than conventional clotting assays. In the traditional TGA, coagulation of citrated plasma is initiated through the extrinsic pathway by adding tissue factor, phospholipids, and calcium. For this study, in the in-vitro thrombin generation assay (TGA) using human platelet-rich plasma, and a kaolin slurry was used instead to initiate coagulation through the contact activation pathway. Thrombin generation is continuously monitored through the product released by cleavage of a thrombin-specific fluorogenic substrate.
as §1, §2

[7] = system: participants with ischemic stroke or TIA; details: for Hemorragic Stroke Incidence Rate (n/N %) / Subjects With Hemorragic Stroke n: up to Day 21
Text: The study enrolled participants ≥40 years of age who had ischemic stroke or TIA. Ischemic stroke was defined as a neurological deficit attributable to a non-lacunar, acute brain infarction detected by neuroimaging and relevant to the clinical symptoms and National Institutes of Health Stroke Score (NIHSS) ≤7 at the time of randomization. TIA was defined as acute onset neurological deficit attributable to focal ischemia of the brain by history or examination, with complete resolution of the deficit and no brain infarction on neuroimaging and ABCD score ≥6 or presence of motor symptoms. Evidence of relevant intracranial or cervical arterial atherosclerotic plaque, ulceration or thrombus in a feeding artery documented by imaging was required regardless of whether the index event was ischemic stroke or TIA, and all participants were required to have a Modified Rankin Score ≤3 before the index event. […] Following informed consent, participants received ASA 100 mg QD and a single loading dose of clopidogrel 300 mg if not already given as standard of care. […] A second MRI was performed on Day 90±6 days. All participants were required to remain on study treatment until the Day 90 MRI was performed up to Day 96.
From 27 Jan. […] The 200 mg BID arm was opened on 5 Jun.

clinical [8] = details: human, in vivo, po, median Tmax, healthy volunteers
[9] = 40 mg QD subcutaneous, Day 1 2 h
[10] = 40 mg QD subcutaneous, Day 1 4 h
[11] = 40 mg QD subcutaneous, Day 2 Predose
[12] = 40 mg QD subcutaneous, Day 4 4 h
[13] = 40 mg QD subcutaneous, Day 4 Predose
[14] = 40 mg QD subcutaneous, Day 10-14

Factor XI Activity, sequence (P03951 19-625): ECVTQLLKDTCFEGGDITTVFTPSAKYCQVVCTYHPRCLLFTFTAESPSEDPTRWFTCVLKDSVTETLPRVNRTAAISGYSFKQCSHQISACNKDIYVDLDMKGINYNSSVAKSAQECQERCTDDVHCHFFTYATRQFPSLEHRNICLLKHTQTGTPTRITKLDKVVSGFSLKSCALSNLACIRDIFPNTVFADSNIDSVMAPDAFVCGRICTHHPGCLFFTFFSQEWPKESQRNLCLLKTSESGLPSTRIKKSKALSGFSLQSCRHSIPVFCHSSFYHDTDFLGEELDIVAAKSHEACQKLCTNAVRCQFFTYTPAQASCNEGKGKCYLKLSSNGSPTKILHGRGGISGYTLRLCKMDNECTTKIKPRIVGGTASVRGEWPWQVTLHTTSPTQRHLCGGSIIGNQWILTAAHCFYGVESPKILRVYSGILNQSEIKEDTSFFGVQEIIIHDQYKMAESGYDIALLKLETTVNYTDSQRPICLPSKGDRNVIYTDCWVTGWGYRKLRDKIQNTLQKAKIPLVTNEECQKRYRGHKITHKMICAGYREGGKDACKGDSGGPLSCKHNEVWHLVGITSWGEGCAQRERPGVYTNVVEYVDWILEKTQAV

## enoxaparin
Factor XI Activity; Day 1 4 h
  Factor XI Activity Measured Value, Mean: 1.06 fraction of 1
  Factor XI Activity Measured Value, Med: 1.07 fraction of 1
Factor XI Activity; Day 10-14
  Factor XI Activity Measured Value, Mean: 1.36 fraction of 1
  Factor XI Activity Measured Value, Med: 1.39 fraction of 1
[1]; 40 mg QD subcutaneous (N=252)
  Total VTE, participants n: 54
[1]; 40 mg once daily subcutaneous
  total venous thromboembolism (VTE) rate: 21.4%
[2]; [9]
  aPTT Measured Value, Mean: 37.03 s
  aPTT Measured Value, Med: 27.5 s
[2]; [10]
  aPTT Measured Value, Mean: 29.14 s
  aPTT Measured Value, Med: 27.75 s
[2]; [11]
  aPTT Measured Value, Mean: 28.11 s
  aPTT Measured Value, Med: 27.4 s
[2]; [12]
  aPTT Measured Value, Mean: 27.37 s
  aPTT Measured Value, Med: 26.1 s
[2]; [13]
  aPTT Measured Value, Mean: 26.03 s
  aPTT Measured Value, Med: 25.8 s
[2]; [14]
  aPTT Measured Value, Mean: 27.8 s
  aPTT Measured Value, Med: 25.9 s

## COc1c(N2C[C@@H]3CCCN[C@@H]3C2)c(F)cc2c(=O)c(C(=O)O)cn(C3CC3)c12 [moxifloxacin, reference compound]
[3]; single dose of 400 mg
  participants with treatment-emergent change from baseline of QTcB >60 ms: 1.7%

## COc1ccc(-n2nc(C(N)=O)c3c2C(=O)N(c2ccc(N4CCCCC4=O)cc2)CC3)cc1 [apixaban]
[4]; 2.5 mg twice daily
  VTE prevention in orthopedic surgery vs enoxaparin 40 mg once daily: superior to enoxaparin
[4]
  bleeding: dose-related bleeding

## C[C@@H]1CCC[C@H](n2cnc(-c3cc(Cl)ccc3-n3cc(Cl)nn3)cc2=O)c2cc(ccn2)-c2c(cnn2C(F)F)NC1=O [milvexian, (5R,9S)-9-(4-(5-chloro-2-(4-chloro-1H-1,2,3-triazol-1-yl)phenyl)-6-oxopyrimidin-1(6H)-yl)-2^1-(difluoromethyl)-5-methyl-2^1H-3-aza-1(4,2)-pyridina-2(5,4)-pyrazolacyclonaphan-4-one]
[1]; AXIOMATIC-TKR or AXIOMATIC-SSP
  dose-response relationship for bleeding events: No dose-response relationship was observed
[1]; Phase 2 studies
  fatal bleeding and symptomatic intracranial hemorrhage: No fatal bleeding and no increases in symptomatic intracranial hemorrhage
[1]; milvexian BID dose regimens (N=518)
  Total VTE, participants n: 63
[2]; 50 mg QD, Day 4 4 h
  aPTT Measured Value, Med: 52 s
[3]; 100 mg and 200 mg twice daily
  changes over time in HR, RR interval, PR interval, or QRS width: No consistent or clinically relevant changes
[3]; 100 mg and 200 mg twice daily for 4 days
  treatment-emergent QTcF or QTcB >480 ms or changes from baseline >60 ms: No treatment-emergent actual values of QTcF or QTcB >480 ms or changes from baseline >60 ms were observed
[3]; supratherapeutic 200 mg twice daily as solution
  upper bound of two-sided 90% CI for the largest ΔΔQTc (QTcF): less than 10 milliseconds
[3]; therapeutic 100 mg twice daily as capsule
  upper bound of two-sided 90% CI for the largest ΔΔQTc (QTcF): less than 10 milliseconds
[3]; therapeutic (100 mg) and supratherapeutic (200 mg) doses, ICH E14
  QT/QTc interval prolongation: does not show evidence of QT/QTc interval prolongation of clinical or regulatory concern
[5]
  inhibition of cardiac potassium (hERG/IKr) channel currents: weak to moderate potency
Clinical [6]; Day 4, 25 mg and 100 mg twice daily
  Tmax at 96 h: ~2 h
Clinical [6]; Day 4, 50 mg and 200 mg once daily
  Tmax at 96 h: ~4 h
Thrombin generation
  ETP Lag Time, Measured Value, Med: 10.33 min
[7]; 25 mg BID
  Hemorragic Stroke Incidence Rate (n/N %): 0 (0) %
  Subjects With Hemorragic Stroke n: 0 (0)
[7]; 25 mg BID, up to Day 90
  New Ischemic Stroke, MI and All Cause Death: Subjects With Event n: 15
[7]; 25 mg QD
  Hemorragic Stroke Incidence Rate (n/N %): 0 (0) %
  Subjects With Hemorragic Stroke n: 0 (0)
[7]; 25 mg QD, up to Day 90
  Ischemic Stroke (n/N %): 4.6%
  New Ischemic Stroke, MI and All Cause Death: Subjects With Event (n/N %): 5.2%
[7]; 25 mg twice daily, 95% CI 0.36-1.30
  HR for clinical ischemic strokes vs placebo: 0.69
[7]; 50 mg BID
  Hemorragic Stroke Incidence Rate (n/N %): 0 (0) %
  Subjects With Hemorragic Stroke n: 0 (0)
[7]; 100 mg BID
  Hemorragic Stroke Incidence Rate (n/N %): 0 (0) %
  Subjects With Hemorragic Stroke n: 0 (0)
[7]; 100 mg BID, up to Day 90
  New Ischemic Stroke, MI and All Cause Death: Subjects With Event (n/N %): 5.2%
[7]; 200 mg BID, primarily due to AEs
  rate of early treatment discontinuation: 31.6%
[7]; 200 mg BID
  Hemorragic Stroke Incidence Rate (n/N %): 0 (0) %
  Subjects With Hemorragic Stroke n: 0 (0)
[7]; 200 mg BID, up to Day 90
  New Ischemic Stroke, MI and All Cause Death: Subjects With Event (n/N %): 9.4%
Clinical [8]; once daily
  Tmax: 2 to 3 h
Clinical [8]; twice daily
  Tmax: ~3 h

## O=C(NC[C@H]1CN(c2ccc(N3CCOCC3=O)cc2)C(=O)O1)c1ccc(Cl)s1 [rivaroxaban]
[4]; 10 mg once daily
  VTE prevention in orthopedic surgery vs enoxaparin 40 mg once daily: superior to enoxaparin
[4]
  bleeding: dose-related bleeding
